{"source": "patent US20070004660A1", "about": "“Synergistic Modulation of Flt3 Kinase Using Alkylquinolines and Alkylquinazolines” (priority 2005, published 2007)", "key": {"[1]": {"tested_on": "Baf3-ITD cells", "experiment": "Cell proliferation assay, single agents and FTI/FLT3 inhibitor combinations, Baf3-ITD", "format": "cell-based, murine", "conditions": "with single sub-IC50 dose of FLT3 inhibitor Compound A, 50 nM", "description": "(§1) The cell lines that were tested included those that are dependent on FLT3ITD mutant activity for growth (MV4-11 and Baf3-FLT3ITD), FLT3wt activity for growth (Baf3FLT3) and those that grow independent of FLT3 activity (THP-1). […] Baf3-FLT3 and Baf3-FLT3ITD cell lines were obtained from Dr. Michael Henrich and the Oregon Health Sciences University. The Baf3 FLT3 cell lines were created by stable transfection of parental Baf3 cells (a murine B cell lymphoma line dependent on the cytokine IL-3 for growth) with either wild-type FLT3 or FLT3 containing the ITD insertion in the juxatamembrane domain of the receptor resulting in its constitutive activation. […]\n(§2) To statistically evaluate the synergy of a FLT3 inhibitor and an FTI in FLT3 dependent cell lines, dosing combinations were evaluated by the method of Chou and Talalay. See Chou T C, Talalay P. (1984) “Quantitative analysis of dose-effect relationships: the combined effects of multiple drugs or enzyme inhibitors.” Adv Enzyme Regul. […] Using this method, multiple FTI and FLT3 combinations were evaluated. […]\n(§3) Cell proliferation assay for MV4-11, Baf3-ITD, Baf3-FLT3 and THP-1 cells. […] Total cell growth is quantified as the difference in luminescent counts (relative light units, RLU) of cell number at Day 0 compared to total cell number at Day 3 (72 hours of growth and/or compound treatment). […]"}, "[2]": {"tested_on": "MV-4-11 tumor xenografts", "text": "Dosing was continued for sixteen consecutive days.\nValues represent the mean (±sem) of 10 mice per treatment group."}, "[3]": {"tested_on": "patients with relapsed and refractory AML", "conditions": "cited from earlier work"}, "[4]": {"tested_on": "Baf3-FLT3 cells", "experiment": "Cell proliferation assay, single agents and FTI/FLT3 inhibitor combinations, Baf3-FLT3", "format": "cell-based, murine", "conditions": "with single sub-IC50 dose of FLT3 inhibitor Compound A, 100 nM", "description": "as §1, §2, §3"}, "[5]": {"tested_on": "MV4-11 AML cells", "experiment": "Cell proliferation assay, single agents and FTI/FLT3 inhibitor combinations, MV4-11", "format": "cell-based, human", "description": "Dose responses for the individual compounds alone were determined for each cell line using a standard 72-hour cell proliferation assay (see FIGS. 6.1-6.8). The standard chemotherapeutic agent Cytarabine was used as a control cytotoxic agent in all experiments. […] The FLT3 inhibitors, Compounds A, B, C, D, E, F G and H individually have good potency (sub-micromolar) for the inhibition of FLT3 driven proliferation (compared to the first line cytotoxic agent Cytarabine and Tipifarnib) in cells that depend on FLT3 for growth. Each of these chemically distinct compounds alone has potential for the treatment of disorders related to FLT3, such as FLT3 positive AML. […] The FLT3 inhibitors tested had no effect on THP-1 proliferation. […] (See FIGS. 10.1-10.8 and Tables 1-3, hereafter.)\nTo statistically evaluate the synergy of a FLT3 inhibitor and an FTI in FLT3 dependent cell lines, dosing combinations were evaluated by the method of Chou and Talalay. See Chou T C, Talalay P. (1984) “Quantitative analysis of dose-effect relationships: the combined effects of multiple drugs or enzyme inhibitors.” Adv Enzyme Regul. 22:27-55. […] Using this method, multiple FTI and FLT3 combinations were evaluated. […]\nas §3, with “treatment). One hundred percent inhibition of growth is defined as an RLU equivalent to the Day 0 reading.” for “treatment).”\nCombination Index Analysis. To determine growth inhibition synergy of a FTI and FLT3 inhibitor combination based on the method of Chou and Talalay (Chou and Talalay. See Chou T C, Talalay P. (1984) “Quantitative analysis of dose-effect relationships: the combined effects of multiple drugs or enzyme inhibitors.” Adv Enzyme Regul. 22:27-55. ), fixed ratio combination dosing with isobolar statistical analysis was performed. […]"}, "[6]": {"conditions": "multicenter Phase II trial, relapsed AML"}}}
{"smiles": "Cn1cncc1C(N)(c1ccc(Cl)cc1)c1ccc2c(c1)c(-c1cccc(Cl)c1)cc(=O)n2C", "note": "(single isomer, unassigned; (+)) [Tipifarnib, (+)-6-[amino(4-chlorophenyl)(1-methyl-1H-imidazol-5-yl)methyl]-4-(3-chlorophenyl)-1-methyl-2(1H)-quinolinone]", "values": [{"measurement": "increase in potency of Tipifarnib", "setting": "[1]", "value": "more than 3 fold"}, {"measurement": "effect on tumor growth", "setting": "[2]; 50 mg/kg po single agent, 16 days", "value": "ineffective"}, {"measurement": "overt toxicity", "setting": "[2]; 16-day treatment, either agent alone or in combination", "value": "No overt toxicity"}, {"measurement": ">50% reduction in bone marrow blasts", "setting": "[3]; [6]", "value": "31 of 50"}, {"measurement": "complete responses (bone marrow blasts <5%)", "setting": "[3]; [6]", "value": "17 of 50"}, {"measurement": "response rate", "setting": "[3]; patients with relapsed and refractory AML", "value": "~30", "unit": "%"}, {"measurement": "increase in potency of Tipifarnib", "setting": "[4]", "value": "more than 3 fold"}, {"measurement": "potency for inhibition of proliferation, single agent", "setting": "[5]; 72-hour assay, cells that depend on FLT3 for growth (Tipifarnib: depending on the cell type)", "value": "high nanomolar to high picomolar range"}, {"measurement": "increase in potency of Tipifarnib", "setting": "[5]; with single sub-IC50 dose of FLT3 inhibitor Compound A, 50 nM", "value": "more than 3 fold"}]}
